# Values of other authors in US20230233583A1, “USE OF PHYTOCANNABINOIDS FOR TREATING MULTIPLE MYELOMA” (priority 2020, published 2023).
# Test system: MM cells
# Settings: reported in literature (ref. 3); by itself or in synergy with bortezomib; cited from earlier work
structure (smiles),measurement,value
"C=C(C)[C@@H]1CCC(C)=C[C@H]1c1c(O)cc(CCCCC)cc1O [CBD, cannabidiol]","growth of MM cells, in words",strongly inhibited growth
